The target in one assay is HIV-1 protease (Human immunodeficiency virus type 1 group M subtype B, UniProt P04585). Briefly: biochemical.
Another assay has as its system HIV-1 (strain IIIB). As to the kind of experiment: microbe, parasite or virus in culture. It is filed as cell-based. Conditions: Human immunodeficiency virus 1, 120 h; MT4 cells infected with HIV-1 strain IIIB, 5 days; lower line of each compound's entry; read-out: IC50 (MT-4 cells).
Setting [1] is: HIV-1 protease, upper line of each compound's entry, read-out: Ki (enzyme).

The values below come from patent US20040097594A1 (priority 1998, published 2004).

The pKi is the Ki on a negative log10 scale, so that one unit is a factor of ten. As usually defined, the pIC50 is −log10 of the IC50, conventionally taken in molar units.

pIC50, pKi: −log10 of the molar value. Where two headings read alike, the source gives them in different places.

Take `CN(C)C(=O)Nc1nc2cc(S(=O)(=O)N(C[C@@H](O)[C@H](Cc3ccccc3)NC(=O)OC(C)(C)C)OC3CCCC3)ccc2[nH]1` [Compound 14, Tert-butyl N-(1S,2R)-1-benzyl-3-[(cyclopentyloxy)(2-[(dimethylamino-carbonyl)amino]-1H-benzimidazol-5-ylsulfonyl)amino]-2-hydroxypropylcarbamate]: the pKi on HIV-1 protease (setting [1]) was > 9.00. Moreover, the pIC50 with HIV-1 (strain IIIB) is 6.30 to 7.00.

In the case of `CCC(C)ON(C[C@@H](O)[C@H](Cc1ccccc1)NC(=O)OC(C)(C)C)S(=O)(=O)c1ccc(OC)cc1` (stereo partly drawn) [Compound 15, tert-butyl N-((1S,2R)-1-benzyl-3-sec-butoxy[(4-methoxyphenyl)sulfonyl]amino-2-hydroxypropyl)carbamate], the negative-log Ki (pKi) at HIV-1 protease (setting [1]) was 8.00 to 9.00. Also, in the assay with HIV-1 (strain IIIB), the pIC50 is < 6.00.

Turning to `COc1ccc(S(=O)(=O)N(C[C@@H](O)[C@H](Cc2ccccc2)NC(=O)OC(C)(C)C)OCC2CCCCC2)cc1` [Compound 16, tert-butyl N-((1S,2R)-1-benzyl-3-(cyclohexylmethoxy)[(4-methoxyphenyl)sulfonyl]amino-2-hydroxypropyl)carbamate], the pKi on HIV-1 protease (setting [1]) was 7.00 to 8.00. The pIC50 with HIV-1 (strain IIIB) is < 6.00.

As for `COc1ccc(S(=O)(=O)N(C[C@@H](O)[C@H](Cc2ccccc2)NC(=O)OC(C)(C)C)Oc2ccccc2)cc1` [Compound 17, tert-butyl N-(1S,2R)-1-benzyl-2-hydroxy-3-[[(4-methoxyphenyl)sulfonyl](phenoxy)amino]propylcarbamate], the pKi at HIV-1 protease (setting [1]) was 7.00 to 8.00. Besides, in the assay with HIV-1 (strain IIIB), the pIC50 was < 6.00.

As for `COc1ccc(S(=O)(=O)N(C[C@@H](O)[C@H](Cc2ccccc2)NC(=O)OC(C)(C)C)OC2CCOCC2)cc1` [Compound 18, tert-butyl N-(1S,2R)-1-benzyl-2-hydroxy-3-[[(4-methoxyphenyl)sulfonyl](tetrahydro-2H-pyran-4-yloxy)amino]propylcarbamate], the pKi at HIV-1 protease (setting [1]) was 8.00 to 9.00. In addition, the pIC50 with HIV-1 (strain IIIB) is < 6.00.

For `COc1ccc(S(=O)(=O)N(C[C@@H](O)[C@H](Cc2ccccc2)NC(=O)OC(C)(C)C)OCC2CCCCO2)cc1` (stereo partly drawn) [Compound 19, tert-butyl N-(1S,2R)-1-benzyl-2-hydroxy-3-[[(4-methoxyphenyl)sulfonyl](tetrahydro-2H-pyran-2-ylmethoxy)amino]propylcarbamate], the pKi at HIV-1 protease (setting [1]) was 7.00 to 8.00. Further, the pIC50 with HIV-1 (strain IIIB) is < 6.00.

As for `COc1ccc(S(=O)(=O)N(C[C@@H](O)[C@H](Cc2ccccc2)NC(=O)OC(C)(C)C)OC2CCOC2)cc1` (stereo partly drawn) [Compound 20, tert-butyl N-(1S,2R)-1-benzyl-2-hydroxy-3-[[(4-methoxyphenyl)sulfonyl](tetrahydro-3-furanyloxy)amino]propylcarbamate], the pKi on HIV-1 protease (setting [1]) is 8.00 to 9.00. For the same compound, the pIC50 in the assay on HIV-1 (strain IIIB) is < 6.00.

Take `COc1ccc(S(=O)(=O)N(C[C@@H](O)[C@H](Cc2ccccc2)NC(=O)OC(C)(C)C)OCc2ccccc2)cc1` [Compound 21, tert-butyl N-((1S,2R)-1-benzyl-3-(benzyloxy)[(4-methoxyphenyl)sulfonyl]amino-2-hydroxypropyl)carbamate]: on HIV-1 protease (setting [1]), the pKi was 7.00 to 8.00. For the same compound, the pIC50 with HIV-1 (strain IIIB) is < 6.00.

`COc1ccc(S(=O)(=O)N(C[C@@H](O)[C@H](Cc2ccccc2)NC(=O)OC(C)(C)C)OCC(C)C)cc1` [Compound 22, tert-butyl N-((1S,2R)-1-benzyl-2-hydroxy-3-isobutoxy[(4-methoxyphenyl)sulfonyl]aminopropyl)carbamate] showed a pKi at HIV-1 protease of 8.00 to 9.00. Besides, the pIC50 with HIV-1 (strain IIIB) is < 6.00.

As to `COc1ccc(S(=O)(=O)N(C[C@@H](O)[C@H](Cc2ccccc2)NC(=O)OC(C)(C)C)OC2CCCCC2)cc1` [Compound 23, tert-butyl N-((1S,2R)-1-benzyl-3-(cyclohexyloxy)[(4-methoxyphenyl)sulfonyl]amino-2-hydroxypropyl)carbamate], the pKi at HIV-1 protease was 8.00 to 9.00. For the same compound, the pIC50 in the assay with HIV-1 (strain IIIB) was < 6.00.

With `COc1ccc(S(=O)(=O)N(C[C@@H](O)[C@H](Cc2ccccc2)NC(=O)OCc2ccccc2)OC2CCCC2)cc1` [Compound 24, Phenylmethyl N-((1S,2R)-1-benzyl-3-(cyclopentyloxy)[(4-methoxyphenyl)sulfonyl]amino-2-hydroxypropyl)carbamate], the pKi on HIV-1 protease (setting [1]) was > 9.00. Further, the negative-log IC50 (pIC50) in the assay with HIV-1 (strain IIIB) is < 6.00.

As for `COc1ccc(S(=O)(=O)N(C[C@@H](O)[C@H](Cc2ccccc2)NC(=O)OCc2cccnc2)OC2CCCC2)cc1` [Compound 25, 3-pyridylmethyl N-((1S,2R)-1-benzyl-3-(cyclopentyloxy)[(4-methoxyphenyl)sulfonyl]amino-2-hydroxypropyl)carbamate], the pKi on HIV-1 protease (setting [1]) is > 9.00. The pIC50 in the assay with HIV-1 (strain IIIB) was 6.00 to 6.30.

As for `COc1ccc(S(=O)(=O)N(C[C@@H](O)[C@H](Cc2ccccc2)NC(=O)c2ccccc2C)OC2CCCC2)cc1` [Compound 26, N^1-((1S,2R)-1-benzyl-3-(cyclopentyloxy)[(4-methoxyphenyl)sulfonyl]amino-2-hydroxypropyl)-2-methylbenzamide], the pKi at HIV-1 protease (setting [1]) is 8.00 to 9.00. Further, in the assay on HIV-1 (strain IIIB), the pIC50 is < 6.00.

Consider `Nc1cccc(S(=O)(=O)N(C[C@@H](O)[C@H](Cc2ccccc2)NC(=O)O[C@H]2CCOC2)OC2CCCC2)c1` [Compound 27, (3S)tetrahydro-3-furanyl N-(1S,2R)-3-[[(3-aminophenyl)sulfonyl](cyclopentyloxy)amino]-1-benzyl-2-hydroxypropylcarbamate], for which the pKi on HIV-1 protease (setting [1]) was > 9.00. For the same compound, the pIC50 with HIV-1 (strain IIIB) was 6.00 to 6.30.

As for `O=C(O)CNc1cccc(S(=O)(=O)N(CC(O)C(Cc2ccccc2)NC(=O)OC2COC3OCCC23)OC2CCCC2)c1` [Compound 35, 2-2-(3-[[(2R,3S)-3-([(3R,3aS,6aR)hexahydrofuro[2,3-b]furan-3-yloxy]carbonylamino)-hydroxy-4-phenylbutyl](cyclopentyloxy)amino]sulfonylanilino)acetic acid and 2-2-(3-[[(2R,3S)-3-([(3S,3aR,6aS)hexahydrofuro[2,3-b]furan-3-yloxy]carbonylamino)-hydroxy-4-phenylbutyl](cyclopentyloxy)amino]sulfonylanilino)acetic acid], at HIV-1 protease (setting [1]), the pKi is > 9.00. In the assay on HIV-1 (strain IIIB), the pIC50 is < 6.00.

`O=C(NC(Cc1ccccc1)C(O)CN(OC1CCCC1)S(=O)(=O)c1cccc(NCCO)c1)OC1COC2OCCC12` [Compound 36, (3R,3aS,6aR)hexahydrofuro[2,3-b]furan-3-yl N-(1S,2R)-1-benzyl-3-[(cyclopentyloxy)(3-[(2-hydroxyethyl)amino]phenylsulfonyl)amino]-2-hydroxypropylcarbamate and (3S,3aR,6aS)hexahydrofuro[2,3-b]furan-3-yl N-(1S,2R)-1-benzyl-3-[(cyclopentyloxy) (3-[(2-hydroxyethyl)amino]phenylsulfonyl)amino]-2-hydroxypropylcarbamate]: the pKi at HIV-1 protease (setting [1]) was > 9.00. The pIC50 with HIV-1 (strain IIIB) is ≥ 7.00.

With `CC(C)COC(=O)N(CC(=O)NCCO)c1cccc(S(=O)(=O)N(CC(O)C(Cc2ccccc2)NC(=O)OC2COC3OCCC23)OC2CCCC2)c1` [Compound 37, (3R,3aS,6aR)hexahydrofuro[2,3-b]furan-3-yl N-(1S,2R)-1-benzyl-3-[(cyclopentyloxy)(3-[2-[(2-hydroxyethyl)amino]-2-oxoethyl(isobutoxycarbonyl)amino)phenylsulfonyl)amino]-2-hydroxypropylcarbamate and (3S,3aR,6aS)hexahydrofuro[2,3-b]furan-3-yl N-(1S,2R)-1-benzyl-3-[(cyclopentyloxy)(3-[2-[(2-hydroxyethyl)amino]-2-oxoethyl(isobutoxycarbonyl)amino]phenylsulfonyl)amino]-2-hydroxypropylcarbamate], the pKi on HIV-1 protease (setting [1]) is > 9.00. For the same compound, the pIC50 in the assay with HIV-1 (strain IIIB) is ≥ 7.00.

With `CC(C)ON(C[C@@H](O)[C@H](Cc1ccccc1)NC(=O)O[C@H]1CO[C@H]2OCC[C@H]21)S(=O)(=O)c1cccc(N)c1` [Compound 38], the pKi on HIV-1 protease (setting [1]) was > 9.00. The pIC50 in the assay with HIV-1 (strain IIIB) is ≥ 7.00.

In the case of `CS(=O)(=O)Nc1nc2cc(S(=O)(=O)N(C[C@@H](O)[C@H](Cc3ccccc3)NC(=O)O[C@@H]3CO[C@@H]4OCC[C@@H]43)OC3CCCC3)ccc2[nH]1` [Compound 39, (3S,3aR,6aS)Hexahydrofuro[2,3-b]furan-3-yl-N-((1S,2R)-1-benzyl-3-(cyclopentyloxy)(2-[(methylsulfonyl)amino]benzimidazol-5-ylsulfonyl)amino-2-hydroxypropyl)carbamate], at HIV-1 protease (setting [1]), the pKi is > 9.00. Besides, in the assay with HIV-1 (strain IIIB), the pIC50 was 6.30 to 7.00.

Turning to `CS(=O)(=O)Nc1nc2cc(S(=O)(=O)N(C[C@@H](O)[C@H](Cc3ccccc3)NC(=O)O[C@H]3CO[C@H]4OCC[C@H]43)OC3CCCC3)ccc2[nH]1` [Compound 40, (3R,3aS,6aR)Hexahydrofuro[2,3-b]furan-3-yl-N-((1S,2R)-1-benzyl-3-(cyclopentyloxy)(2-[(methylsulfonyl)amino]benzimidazol-5-ylsulfonyl)amino-2-hydroxypropyl)carbamate], on HIV-1 protease (setting [1]), the pKi is > 9.00. Besides, the pIC50 in the assay with HIV-1 (strain IIIB) was ≥ 7.00.

On to `O=C(N[C@@H](Cc1ccccc1)[C@H](O)CN(OC1CCCC1)S(=O)(=O)c1cccc(O)c1)O[C@H]1CO[C@H]2OCC[C@H]21` [Compound 44, (3R,3aS,6aR)hexahydrofuro[2,3-b]furan-3-yl N-((1S,2R)-1-benzyl-3-(cyclopentyloxy)[(3-hydroxyphenyl)sulfonyl]amino-2-hydroxypropyl)carbamate], for which the pKi at HIV-1 protease (setting [1]) is > 9.00. The pIC50 in the assay with HIV-1 (strain IIIB) was ≥ 7.00.

As to `CNc1cccc(S(=O)(=O)N(C[C@@H](O)[C@H](Cc2ccccc2)NC(=O)O[C@H]2CO[C@H]3OCC[C@H]32)OC2CCCC2)c1` [Compound 45, (3R,3aS,6aR)hexahydrofuro[2,3-b]furan-3-yl N-(1S,2R)-3-[[(3-N-methylaminophenyl)sulfonyl](cyclopentyloxy)amino]-1-benzyl-2-hydroxypropylcarbamate], at HIV-1 protease (setting [1]), the pKi is > 9.00. Also, the pIC50 in the assay with HIV-1 (strain IIIB) is ≥ 7.00.
